In ChEMBL document CHEMBL4819025, “Natural Piperine Improves Lipid Metabolic Profile of High-Fat Diet-Fed Mice by Upregulating SR-B1 and ABCG8 Transporters” (J Nat Prod, 2021):
Calls of active or inactive are those of the source. The calls are words filed in the database; no cut-off is given here.

Tests used:
[1] = tested on: HepG2; assay: Hypolipidemic activity in human HepG2 cells assessed as reduction in FFA-induced intracellular fat deposition at 10 uM after 24 hrs by Oil Red O staining based assay; format: functional, cell-based
[2] = tested on: Mus musculus; assay: Effect on ABCG1 protein expression level in high-fat diet fed mouse liver at 25 mg/kg/day by Western blotting analysis; format: functional, organism-based
[3] = tested on: Mus musculus; assay: Hypolipidemic activity in high fat diet-induced ICR mouse hyperlipidemic model assessed as reduction in plasma TG level at 25 mg/kg, ig administered once daily for 8 weeks; format: functional; design: scale not given: the % may be the effect or the level left
[4] = Toxicity in high fat diet-induced ICR mouse model of hyperlipidemia assessed as change in stomach weight at 25 mg/kg, ig administered once daily for 8 weeks by H and E staining based microscopic analysis; format: organism-based; conditions: in vivo, po, 1344 h
[5] = tested on: Mus musculus; assay: Effect on SR-B1 mRNA expression level in high-fat diet fed mouse small intestine at 25 mg/kg, po by qRT-PCR analysis; format: functional, organism-based
[6] = tested on: Mus musculus; assay: Effect on SR-B1 mRNA expression level in high-fat diet fed mouse liver at 25 mg/kg/day by qRT-PCR analysis; format: functional, organism-based
[7] = tested on: Mus musculus; assay: Hypolipidemic activity in high fat diet-induced ICR mouse hyperlipidemic model assessed as reduction in fat accumulation in liver at 25 mg/kg, ig administered once daily for 8 weeks by H and E staining based microscopic analysis; format: functional, organism-based
[8] = Toxicity in high fat diet-induced ICR mouse model of hyperlipidemia assessed as change in liver weight at 25 mg/kg, ig administered once daily for 8 weeks by H and E staining based microscopic analysis; format: organism-based; conditions: in vivo, po, 1344 h
[9] = tested on: HepG2; assay: Cytotoxicity against human HepG2 cells assessed as reduction in cell viability at 1 to 100 uM after 24 hrs by CCK8 assay; format: cell-based; conditions: hepg2, 24 h, dose 1-100 µM
[10] = Toxicity in high fat diet-induced mouse model of hyperlipidemia assessed as change in food intake at 25 mg/kg, ig administered once daily for 8 weeks; format: organism-based; conditions: in vivo, po, 1344 h
[11] = tested on: HepG2; assay: Hypolipidemic activity in human HepG2 cells assessed as reduction in FFA-induced TG accumulation after 24 hrs; format: functional, cell-based; conditions: dose 10-100 µM
[12] = tested on: Mus musculus; assay: Hypolipidemic activity in normal diet fed ICR mouse assessed as alteration in plasma LDL-C level at 25 mg/kg, ig administered once daily for 8 weeks; format: functional, organism-based
[13] = tested on: HepG2; assay: Hypolipidemic activity in human HepG2 cells assessed as reduction in FFA-induced intracellular fat deposition at 50 to 100 uM after 24 hrs by Oil Red O staining based assay; format: functional; design: scale not given: the % may be the effect or the level left; conditions: dose 50-100 µM
[14] = tested on: Mus musculus; assay: Hypolipidemic activity in normal diet fed ICR mouse assessed as alteration in plasma TC level at 25 mg/kg, ig administered once daily for 8 weeks; format: functional, organism-based
[15] = Toxicity in high fat diet-induced ICR mouse model of hyperlipidemia assessed as change in kidney weight at 25 mg/kg, ig administered once daily for 8 weeks by H and E staining based microscopic analysis; format: organism-based; conditions: in vivo, po, 1344 h
[16] = tested on: Mus musculus; assay: Effect on ABCG5 mRNA expression level in high-fat diet fed mouse liver at 25 mg/kg/day by qRT-PCR analysis; format: functional, organism-based
[17] = Toxicity in high fat diet-induced ICR mouse model of hyperlipidemia assessed as change in spleen weight at 25 mg/kg, ig administered once daily for 8 weeks by H and E staining based microscopic analysis; format: organism-based; conditions: in vivo, po, 1344 h
[18] = Upregulation of […] expression in high-fat diet fed mouse small intestine assessed as fold increase at 25 mg/kg, po by qRT-PCR analysis; format: functional
[19] = tested on: Mus musculus; assay: Effect on NPC1 mRNA expression level in high-fat diet fed mouse small intestine at 25 mg/kg, po by qRT-PCR analysis; format: functional, organism-based
[20] = tested on: Mus musculus; assay: Upregulation of ABCG8 mRNA expression in high-fat diet fed mouse liver at 25 mg/kg/day by qRT-PCR analysis; format: functional, organism-based
[21] = tested on: Mus musculus; assay: Hypolipidemic activity in normal diet fed ICR mouse assessed as reduction in TG level in liver at 25 mg/kg, ig administered once daily for 8 weeks by H and E staining based microscopic analysis; format: functional, organism-based
[22] = tested on: Mus musculus; assay: Effect on ABCA1 mRNA expression level in high-fat diet fed mouse small intestine at 25 mg/kg, po by qRT-PCR analysis; format: functional, organism-based
[23] = tested on: Mus musculus; assay: Effect on SR-B1 protein expression level in high-fat diet fed mouse small intestine at 25 mg/kg, po by Western blotting analysis; format: functional, organism-based
[24] = tested on: Mus musculus; assay: Hypolipidemic activity in normal diet fed ICR mouse assessed as alteration in plasma TG level at 25 mg/kg, ig administered once daily for 8 weeks; format: functional, organism-based
[25] = tested on: Mus musculus; assay: Hypolipidemic activity in high fat diet-induced ICR mouse hyperlipidemic model assessed as reduction in plasma TC level at 25 mg/kg, ig administered once daily for 8 weeks; format: functional; design: scale not given: the % may be the effect or the level left
[26] = tested on: Mus musculus; assay: Effect on NPC1L1 protein expression level in high-fat diet fed mouse small intestine at 25 mg/kg, po by Western blotting analysis; format: functional, organism-based
[27] = tested on: Mus musculus; assay: Effect on ABCG5 protein expression level in high-fat diet fed mouse liver at 25 mg/kg/day by Western blotting analysis; format: functional, organism-based
[28] = tested on: Mus musculus; assay: Effect on ABCA1 protein expression level in high-fat diet fed mouse liver at 25 mg/kg/day by Western blotting analysis; format: functional, organism-based
[29] = tested on: Mus musculus; assay: Effect on ABCA1 mRNA expression level in high-fat diet fed mouse liver at 25 mg/kg/day by qRT-PCR analysis; format: functional, organism-based
[30] = tested on: Mus musculus; assay: Effect on ABCG8 protein expression level in high-fat diet fed mouse liver at 25 mg/kg/day by Western blotting analysis; format: functional, organism-based
[31] = tested on: Mus musculus; assay: Effect on NPC1L1 protein expression level in high-fat diet fed mouse liver at 25 mg/kg/day by Western blotting analysis; format: functional, organism-based
[32] = tested on: Mus musculus; assay: Hypolipidemic activity in high fat diet-induced ICR mouse hyperlipidemic model assessed as increase in plasma HDL-C level at 25 mg/kg, ig administered once daily for 8 weeks; format: functional, organism-based
[33] = tested on: Mus musculus; assay: Upregulation of SR-B1 protein expression level in high-fat diet fed mouse liver at 25 mg/kg/day by Western blotting analysis; format: functional, organism-based
[34] = tested on: Mus musculus; assay: Effect on ABCG5 mRNA expression level in high-fat diet fed mouse small intestine at 25 mg/kg, po by qRT-PCR analysis; format: functional, organism-based
[35] = tested on: Mus musculus; assay: Hypolipidemic activity in high fat diet-induced ICR mouse hyperlipidemic model assessed as reduction in TC level in liver at 25 mg/kg, ig administered once daily for 8 weeks by H and E staining based microscopic analysis; format: functional, organism-based
[36] = tested on: Mus musculus; assay: Hypolipidemic activity in high fat diet-induced ICR mouse hyperlipidemic model assessed as reduction in TG level in liver at 25 mg/kg, ig administered once daily for 8 weeks by H and E staining based microscopic analysis; format: functional, organism-based
[37] = tested on: Mus musculus; assay: Effect on ABCG1 mRNA expression level in high-fat diet fed mouse liver at 25 mg/kg/day by qRT-PCR analysis; format: functional, organism-based
[38] = tested on: Mus musculus; assay: Hypolipidemic activity in normal diet fed ICR mouse assessed as alteration in plasma HDL-C level at 25 mg/kg, ig administered once daily for 8 weeks; format: functional, organism-based
[39] = Upregulation of ABCG8 protein expression in high-fat diet fed mouse small intestine at 25 mg/kg, po by Western blotting analysis; format: functional
[40] = Toxicity in high fat diet-induced mouse model of hyperlipidemia assessed as change in body weight at 25 mg/kg, ig administered once daily for 8 weeks; format: organism-based; conditions: in vivo, po, 1344 h
[41] = tested on: Mus musculus; assay: Hypolipidemic activity in normal diet fed ICR mouse assessed as reduction in TC level in liver at 25 mg/kg, ig administered once daily for 8 weeks by H and E staining based microscopic analysis; format: functional, organism-based
[42] = tested on: Mus musculus; assay: Hypolipidemic activity in high fat diet-induced ICR mouse hyperlipidemic model assessed as reduction in plasma LDL-C level at 25 mg/kg, ig administered once daily for 8 weeks; format: functional; design: scale not given: the % may be the effect or the level left
[43] = tested on: Mus musculus; assay: Effect on ABCG5 protein expression level in high-fat diet fed mouse small intestine at 25 mg/kg, po by Western blotting analysis; format: functional, organism-based
[44] = Toxicity in high fat diet-induced ICR mouse model of hyperlipidemia assessed as change in hepatic morphology at 25 mg/kg, ig administered once daily for 8 weeks by H and E staining based microscopic analysis; format: organism-based; conditions: in vivo, po, 1344 h
[45] = tested on: HepG2; assay: Hypolipidemic activity in human HepG2 cells assessed as reduction in FFA-induced lipid accumulation incubated for 24 hrs by Oil Red O staining based assay; format: functional, cell-based; conditions: dose 10-100 µM
[46] = Toxicity in high fat diet-induced ICR mouse model of hyperlipidemia assessed as change in lung weight at 25 mg/kg, ig administered once daily for 8 weeks by H and E staining based microscopic analysis; format: organism-based; conditions: in vivo, po, 1344 h
[47] = Toxicity in high fat diet-induced ICR mouse model of hyperlipidemia assessed as change in heart weight at 25 mg/kg, ig administered once daily for 8 weeks by H and E staining based microscopic analysis; format: organism-based; conditions: in vivo, po, 1344 h
[48] = tested on: Mus musculus; assay: Effect on NPC1 mRNA expression level in high-fat diet fed mouse liver at 25 mg/kg/day by qRT-PCR analysis; format: functional, organism-based
[49] = tested on: Mus musculus; assay: Effect on ABCA1 protein expression level in high-fat diet fed mouse small intestine at 25 mg/kg, po by Western blotting analysis; format: functional, organism-based

## CC(C)c1c(C(=O)Nc2ccccc2)c(-c2ccccc2)c(-c2ccc(F)cc2)n1CC[C@@H](O)C[C@@H](O)CC(=O)O
[1]
  Activity: Active

## O=C(/C=C/C=C/c1ccc2c(c1)OCO2)N1CCCCC1 [PIPERINE]
[2]
  Activity: inactive
[3]
  Activity: 43.6%
[4]
  Activity: Non-Toxic
[5]
  Activity: inactive
[6]
  Activity: inactive
[7]
  Activity: Active
[8]
  Activity: Non-Toxic
[9]
  Activity: Non-Toxic
[10]
  Activity: Non-Toxic
[11]
  Activity: Dose-Dependent Effect
[12]
  Activity: inactive
[13]
  Activity: 36%
[14]
  Activity: inactive
[15]
  Activity: Non-Toxic
[16]
  Activity: inactive
[17]
  Activity: Non-Toxic
[18]
  fold change (FC): 1.8
[19]
  Activity: inactive
[20]
  Activity: Active
[21]
  Activity: inactive
[22]
  Activity: inactive
[23]
  Activity: inactive
[24]
  Activity: inactive
[25]
  Activity: 27.5%
[26]
  Activity: inactive
[27]
  Activity: inactive
[28]
  Activity: inactive
[29]
  Activity: inactive
[30]
  Activity: inactive
[31]
  Activity: inactive
[32]
  Activity: Active
[33]
  Activity: Active
[34]
  Activity: inactive
[35]
  Activity: Active
[36]
  Activity: Active
[37]
  Activity: inactive
[38]
  Activity: inactive
[39]
  Activity: 80%
[40]
  Activity: Non-Toxic
[41]
  Activity: inactive
[42]
  Activity: 34.4%
[43]
  Activity: inactive
[44]
  Activity: Non-Toxic
[45]
  Activity: Dose-Dependent Effect
[46]
  Activity: Non-Toxic
[47]
  Activity: Non-Toxic
[48]
  Activity: inactive
[49]
  Activity: inactive
